tested on: P. falciparum Dd2; test: Activity against the Dd2 strain of P. falciparum (SYBR Green I, 72 h); format: cell-based; settings: P. falciparum Dd2, 72 h incubation
Method: The Dd2 strain of P. falciparum was cultured in complete medium (RPMI with L-glutamine, 4.3% heat-inactivated O-positive human serum, 2.08 mg/ml albumax, 0.013 mg/ml hypoxanthine, 1.17 mg/ml glucose, 0.18% NaHCO3, 0.031 M Hepes, 2.60 mM NaOH, and 0.043 mg/ml gentamicin) until the parasitemia reached 3-8%. Parasitemia was determined by checking at least 500 red blood cells from a Giemsa-stained blood smear. The Dd2 cultures along with tested O-positive red blood cells were centrifuged at room temperature at 2,000 rpm for 5 minutes using an Eppendorf centrifuge 5810R with an A-4-81 rotor. The medium was aspirated off. For the compound screening, a parasite dilution at a 1% parasitemia and 1.0% hematocrit was created with screening medium (RPMI with L-glutamine, 4.16 mg/ml albumax II, 0.013 mg/ml hypoxanthine, 1.73 mg/ml glucose, 0.18% NaHCO3, 0.031 M Hepes, 2.60 mM NaOH, and 0.043 mg/ml gentamicin). The suspension was gassed with 93% nitrogen, 4% carbon dioxide, and 3% oxygen and placed at 37° C. until needed. Using a liquid dispenser, 20 μl of screening medium was dispensed into 384-well, black, clear-bottom plates. With a PinTool, 100 nl of compounds dissolved in DMSO was transferred into the assay plates along with control compound (mefloquine). Next, 30 μl of the parasite suspension in screening medium was then dispensed into the assay plates such that the final parasitemia was 1% and the final hematocrit was 1.0%. Final concentration of DMSO was 0.125%. Mefloquine at a final concentration of 20 μM and DMSO at a final concentration of 0.125% were used within the assay plates to serve as background and baseline controls, respectively. The assay plates were transferred to incubators (93% nitrogen, 4% carbon dioxide, and 3% oxygen during the 72 h incubation at 37° C.). Ten microliters of detection reagent consisting of 10×SYBR Green I (Invitrogen; supplied in 10,000× concentration) in lysis buffer (20 mM Tris-HCl, 5 mM EDTA, 0.16% Saponin wt/vol, 1.6% Triton X vol/vol) was dispensed into the assay plates. For optimal staining, the assay plates were left at room temperature for 24 h in the dark. The assay plates were read by using an Envision (PerkinElmer) reader, with 505 dichroic mirrors with 485-nm excitation and 530-nm emission settings, and the plate reads were from the bottom.
By following the above-described protocol, the 50% effective concentration (EC50) for compounds 1-95 was measured against P. falciparum Dd2 and the results are shown in Table 2: […]

| EC50 | Structure (SMILES) |
| --- | --- |
| 156 nM | O=C(Nc1ccc(F)cc1)N1CCCCN2[C@H](CO)[C@H](c3ccc(C#Cc4ccccc4)cc3)[C@@H]2C1 [Compound 54, (8R,9R,10S)-N-(4-fluorophenyl)-10-(hydroxymethyl)-9-[4-(2-phenylethynyl)phenyl]-1,6-diazabicyclo[6.2.0] decane-6-carboxamide] |

same assay, conditions: Plasmodium falciparum, DD2, 72 h, P. falciparum Dd2, 72 h incubation

| EC50 | Structure (SMILES) |
| --- | --- |
| 17 nM | COc1ccc(NC(=O)N2CCCCN3[C@@H](CO)[C@H](c4ccc(C#Cc5ccccc5)cc4)[C@@H]3C2)cc1 [Compound 52, (8R,9R,10R)-10-(hydroxymethyl)-N-(4-methoxyphenyl)-9-[4-(2-phenylethynyl)phenyl]-1,6-diazabicyclo[6.2.0] decane-6-carboxamide] |
| 2770 nM | COc1ccc(NC(=O)N2CCCCN3[C@H](C(=O)O)[C@H](c4ccc(C#Cc5ccccc5)cc4)[C@@H]3C2)cc1 [Compound 53, (8R,9R,10S)-6-[(4-methoxyphenyl)carbamoyl]-9-[4-(2-phenylethynyl)phenyl]-1,6-diazabicyclo[6.2.0] decane-10-carboxylic acid] |
| 5 nM | COc1ccc(NC(=O)N2CCCCN3[C@H](CN4CCOCC4)[C@H](c4ccc(C#Cc5ccccc5)cc4)[C@@H]3C2)cc1 [Compound 55, (8R,9S,10S)-N-(4-methoxyphenyl)-10-(morpholin-4-ylmethyl)-9-[4-(2-phenylethynyl)phenyl]-1,6-diazabicyclo[6.2.0] decane-6-carboxamide] |
| 80 nM | COc1cccc(NC(=O)N2CCCCN3[C@H](CO)[C@H](c4ccc(C#Cc5ccccc5)cc4)[C@@H]3C2)c1 [Compound 56] |
| 98 nM | COc1ccc(NC(=O)N2CCCCN3[C@H](CN)[C@H](c4ccc(C#Cc5ccccn5)cc4)[C@@H]3C2)cc1 [Compound 57, (8R,9S,10S)-10-(aminomethyl)-N-(4-methoxyphenyl)-9-{4-[2-(pyridin-2-yl)ethynyl]phenyl}-1,6-diazabicyclo[6.2.0] decane-6-carboxamide] |
| 6 nM | COc1ccc(NC(=O)N2CCCCN3[C@H](CNC(C)=O)[C@H](c4ccc(C#Cc5ccccc5)cc4)[C@@H]3C2)cc1 [Compound 58, (8R,9S,10S)-10-(acetamidomethyl)-N-(4-methoxyphenyl)-9-[4-(2-phenylethynyl)phenyl]-1,6-diazabicyclo[6.2.0] decane-6-carboxamide] |
| 2700 nM | O=C(Nc1cccnc1)N1CCCCN2[C@H](CO)[C@H](c3ccc(C#Cc4ccccc4)cc3)[C@@H]2C1 [Compound 59, (8R,9R,10S)-10-(hydroxymethyl)-9-[4-(2-phenylethynyl)phenyl]-N-(pyridin-3-yl)-1,6-diazabicyclo[6.2.0] decane-6-carboxamide] |
| 61 nM | COc1ccc(NC(=O)N2CCCCN3[C@H](CO)[C@H](c4ccc(C#Cc5cccnc5)cc4)[C@@H]3C2)cc1 [Compound 60, (8R,9R,10S)-10-(hydroxymethyl)-N-(4-methoxyphenyl)-9-{4-[2-(pyridin-3-yl)ethynyl]phenyl}-1,6-diazabicyclo[6.2.0] decane-6-carboxamide] |
| 47 nM | CNC[C@@H]1[C@H](c2ccc(C#Cc3ccccc3)cc2)[C@@H]2CN(C(=O)Nc3ccc(OC)cc3)CCCCN12 [Compound 61, (8R,9S,10S)-N-(4-methoxyphenyl)-10-[(methylamino)methyl]-9-[4-(2-phenylethynyl)phenyl]-1,6-diazabicyclo[6.2.0] decane-6-carboxamide] |
| 4430 nM | COc1ccc(N(C)C(=O)N2CCCCN3[C@H](CO)[C@H](c4ccc(C#Cc5ccccc5)cc4)[C@@H]3C2)cc1 [Compound 62, (8R,9R,10S)-10-(hydroxymethyl)-N-(4-methoxyphenyl)-N-methyl-9-[4-(2-phenylethynyl)phenyl]-1,6-diazabicyclo[6.2.0] decane-6-carboxamide] |
| 1230 nM | COc1ccc(CN2CCCCN3[C@H](CO)[C@H](c4ccc(C#Cc5ccccc5)cc4)[C@@H]3C2)cc1 [Compound 63, [(8R,9R,10S)-6-[(4-methoxyphenyl)methyl]-9-[4-(2-phenylethynyl)phenyl]-1,6-diazabicyclo[6.2.0]decan-10-yl]methanol] |
| 1010 nM | COc1ccc(NC(=O)N2CCCCN3[C@H](CO)[C@H](c4ccc(-c5cccnc5)cc4)[C@@H]3C2)cc1 [Compound 64, (8R,9R,10S)-10-(hydroxymethyl)-N-(4-methoxyphenyl)-9-[4-(pyridin-3-yl)phenyl]-1,6-diazabicyclo[6.2.0] decane-6-carboxamide] |
| 110 nM | COc1ccc(NC(=O)N2CCCCN3[C@H](CNC(C)=O)[C@H](c4ccc(C#Cc5ccccn5)cc4)[C@@H]3C2)cc1 [Compound 65, (8R,9S,10S)-10-(acetamidomethyl)-N-(4-methoxyphenyl)-9-{4-[2-(pyridin-2-yl)ethynyl]phenyl}-1,6-diazabicyclo[6.2.0] decane-6-carboxamide] |
| 1310 nM | COc1ccc(NC(=O)N2CCCCN3[C@H](CO)[C@H](c4ccc(-c5ccn(-c6ccccc6)c5)cc4)[C@@H]3C2)cc1 [Compound 66, (8R,9R,10S)-10-(hydroxymethyl)-N-(4-methoxyphenyl)-9-[4-(1-phenyl-1H-pyrrol-3-yl)phenyl]-1,6-diazabicyclo[6.2.0] decane-6-carboxamide] |
| 19500 nM | COc1ccc(NC(=O)N2CCCCN3[C@H](CO)[C@H](c4ccc(-c5cccc(F)c5)cc4)[C@@H]3C2)cc1 [Compound 67, (8R,9R,10S)-9-[4-(3-fluorophenyl)phenyl]-10-(hydroxymethyl)-N-(4-methoxyphenyl)-1,6-diazabicyclo[6.2.0] decane-6-carboxamide] |
| 19500 nM | COc1ccc(NC(=O)N2CCCCN3[C@H](CO)[C@H](c4ccc(-c5ccncc5)cc4)[C@@H]3C2)cc1 [Compound 69, (8R,9R,10S)-10-(hydroxymethyl)-N-(4-methoxyphenyl)-9-[4-(pyridin-4-yl)phenyl]-1,6-diazabicyclo[6.2.0] decane-6-carboxamide] |
| 13 nM | COc1ccc(NC(=O)N2CCCCN3C[C@H](c4ccc(C#Cc5ccccc5)cc4)[C@@H]3C2)cc1 [Compound 70, (8R,9S)-N-(4-methoxyphenyl)-9-[4-(2-phenylethynyl)phenyl]-1,6-diazabicyclo[6.2.0] decane-6-carboxamide] |
| 34 nM | COc1ccc(NC(=O)N2CCCCN3[C@H](CO)[C@H](c4ccc(C#Cc5ccc(F)c(F)c5)cc4)[C@@H]3C2)cc1 [Compound 71, (8R,9R,10S)-9-{4-[2-(3,4-difluorophenyl)ethynyl]phenyl}-10-(hydroxymethyl)-N-(4-methoxyphenyl)-1,6-diazabicyclo[6.2.0] decane-6-carboxamide] |
| 17 nM | COc1ccc(NC(=O)N2CCCCN3[C@H](CO)[C@H](c4ccc(C#Cc5ccccc5F)cc4)[C@@H]3C2)cc1 [Compound 72, (8R,9R,10S)-9-{4-[2-(2-fluorophenyl)ethynyl]phenyl}-10-(hydroxymethyl)-N-(4-methoxyphenyl)-1,6-diazabicyclo[6.2.0] decane-6-carboxamide] |
| 104 nM | COc1ccc(NC(=O)N2CCCCN3[C@H](CN4CC(C)(O)C4)[C@H](c4ccc(C#Cc5ccccc5)cc4)[C@@H]3C2)cc1 [Compound 73, (8R,9S,10S)-10-[(3-hydroxy-3-methylazetidin-1-yl)methyl]-N-(4-methoxyphenyl)-9-[4-(2-phenylethynyl)phenyl]-1,6-diazabicyclo[6.2.0] decane-6-carboxamide] |
| 87 nM | COc1ccc(NC(=O)N2CCCCCN3[C@H](CO)[C@H](c4ccc(C#Cc5ccccc5)cc4)[C@@H]3C2)cc1 [Compound 74, (9R,10R,11S)-11-(hydroxymethyl)-N-(4-methoxyphenyl)-10-[4-(2-phenylethynyl)phenyl]-1,7-diazabicyclo[7.2.0] undecane-7-carboxamide] |
| 71 nM | COc1ccc(NC(=O)N2CCCCN3[C@H](CO)[C@H](c4ccc(C#Cc5ccc(F)cc5F)cc4)[C@@H]3C2)cc1 [Compound 75, (8R,9R,10S)-9-{4-[2-(2,4-difluorophenyl)ethynyl]phenyl}-10-(hydroxymethyl)-N-(4-methoxyphenyl)-1,6-diazabicyclo[6.2.0] decane-6-carboxamide] |
| 8 nM | COc1ccc(NC(=O)N2CCCCN3[C@H](CN(C)C(C)=O)[C@H](c4ccc(C#Cc5ccccc5)cc4)[C@@H]3C2)cc1 [Compound 76, (8R,9S,10S)-N-(4-methoxyphenyl)-10-[(N-methylacetamido)methyl]-9-[4-(2-phenylethynyl)phenyl]-1,6-diazabicyclo[6.2.0] decane-6-carboxamide] |

From US11325913B2, “Compounds and methods for the treatment of malaria” (THE BROAD INSTITUTE, INC., priority 2013, dated 2022)
